This is an account of results in article PMC6757289, “Design and Characterization of SGK3-PROTAC1, an Isoform Specific SGK3 Kinase PROTAC Degrader” (ACS Chemical Biology, 2019).

Assay type in all cases: cell-based
In one assay the target is T1, SGK2 (Homo sapiens, UniProt Q9HBY8).
T1 construct: reduced endogenous SGK isoform or S6K1 expression when administered to HEK293 cells for 48 h; endogenous in cells; host or cells: HEK293
Put plainly: SGK2 protein level in HEK293 cells, immunoblot. The settings on record: HEK293, 48 h. The method, then: A medium length linker composed of three PEG units was used in the first instance (Figure 1B and C). […] After 48 h of PROTAC treatment, cell lysates were analyzed by immunoblot analysis, and protein expression under each condition was quantified relative to the DMSO-only control. […] DAT1 reduced SGK3 expression by 60% at 1 μM and 75% at 10 μM after 48 h (Figure 1D). […] As expected, inhibition of CUL2 neddylation by means of the inhibitor MLN4924 (3 μM) or proteasome inhibition (MG132, 50 μM) blocked DAT1-induced degradation of SGK3 (Figure S1C).
All cell treatments were carried out as described in figure legends, to a final DMSO concentration of 0.1% (v/v). Lysates were quantified. Immunoblotting was performed using standard procedures, described in brief below. Lysate concentration was quantified by Bradford Assay, and 10 μg of lysate was loaded in the LDS sample buffer for SDS-PAGE electrophoresis on Novex 4–12% Bis–Tris gels. Proteins were electrophoretically transferred onto nitrocellulose membranes (Amersham Protran 0.45 μm NC; GE Healthcare) at 80 V for 80 min on ice in transfer buffer. […] The signal was produced with near-infrared secondary antibodies and detected using a Licor Biosciences Odyssey System, and the signal was quantified in Image Studio Lite.

For the next assay, the target named is T2, SGK3 (Homo sapiens, UniProt Q96BR1).
T2 sequence (Q96BR1 1-496): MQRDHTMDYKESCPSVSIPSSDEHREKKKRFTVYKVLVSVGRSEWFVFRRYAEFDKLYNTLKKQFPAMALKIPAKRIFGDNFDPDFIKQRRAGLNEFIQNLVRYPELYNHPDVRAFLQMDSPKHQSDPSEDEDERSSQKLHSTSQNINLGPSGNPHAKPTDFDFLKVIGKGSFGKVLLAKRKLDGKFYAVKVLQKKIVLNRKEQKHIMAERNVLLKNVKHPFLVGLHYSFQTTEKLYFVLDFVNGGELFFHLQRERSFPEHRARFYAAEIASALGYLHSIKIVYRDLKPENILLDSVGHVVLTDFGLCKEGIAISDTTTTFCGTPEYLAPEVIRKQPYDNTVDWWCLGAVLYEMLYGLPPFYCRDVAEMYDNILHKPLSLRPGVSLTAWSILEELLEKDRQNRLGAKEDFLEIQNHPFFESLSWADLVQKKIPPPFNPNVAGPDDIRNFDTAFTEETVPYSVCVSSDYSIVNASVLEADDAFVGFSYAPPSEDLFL
Put plainly: SGK3 degradation in ZR-75-1 cells, immunoblot. The following applies: for SGK3 expression: ZR-75-1, 5 days 1 μM GDC0941 or AZD5363, 0.3 μM for 5 days or 8 h. The method, then: Figure 3 Characterization of cellular activities of SGK3-PROTAC1 and cisSGK3-PROTAC1. (A) HEK293 cells were first treated for 8 h with 0.03–3 μM SGK3-PROTAC1 and cisSGK3-PROTAC1. One hour before lysis, cells were treated with 3 μM AZD5363. Lysates were subjected to immunoblot analysis with the indicated antibodies. […] Lysates were subjected to immunoblot analysis with the indicated antibodies. (C) HEK293 cells were treated for up to 48 h with SGK3-PROTAC1 (0.3 μM), and lysates were analyzed by immunoblot analysis using the indicated antibodies. (D) HEK293 cells were treated for 24 h with SGK3-PROTAC1. Cells were washed three times with DMEM to wash out the compound, and recovery of SGK3 expression protein was analyzed by immunoblot analysis. (E–G) As in A except that CAMA-1 (E), ZR-75-1 (F), and JIMT-1 (G) cells were employed rather than HEK293 cells.
Figure 5 SGK3-PROTAC1-mediated degradation of SGK3 inhibits Akt-independent activation of mTORC1 in cancer cell lines treated with Akt or PI3K inhibitors. CAMA-1 (A, C) or ZR-75-1 (B, D) were treated for 5 days with 1 μM GDC0941 (A, B) or 1 μM AZD5363 (C, D). Cells were treated with the compounds indicated for either 5 days or 8 h before lysis; cells were treated with the compounds indicated. Cell lysates were subject to immunoblot analysis with the indicated antibodies.
All cell treatments were carried out as described in figure legends, to a final DMSO concentration of 0.1% (v/v). Lysates were quantified. Immunoblotting was performed using standard procedures, described in brief below. Lysate concentration was quantified by Bradford Assay, and 10 μg of lysate was loaded in the LDS sample buffer for SDS-PAGE electrophoresis on Novex 4–12% Bis–Tris gels. Proteins were electrophoretically transferred onto nitrocellulose membranes (Amersham Protran 0.45 μm NC; GE Healthcare) at 80 V for 80 min on ice in transfer buffer. Transferred membranes were blocked with 5% (w/v) nonfat dry milk dissolved in TBS-T [20 mM Tris/HCl, pH 7.5, 150 mM NaCl, and 0.1% (v/v) Tween 20] at RT for 30 min, before incubation with the primary antibody overnight at 4 °C. The signal was produced with near-infrared secondary antibodies and detected using a Licor Biosciences Odyssey System, and the signal was quantified in Image Studio Lite.

Assay [1] has as its system mTORC1-mediated phosphorylation of S6K1 at Thr389. In words: mTORC1 signaling in CAMA-1 cells treated with PI3K or Akt inhibitor, immunoblot. The following applies: CAMA-1, 5 days 1 μM GDC0941 or AZD5363; 0.3 μM. The method, then:
We therefore aimed to investigate the effect that degradation of SGK3 would have on this resistance pathway and whether SGK3-PROTAC1 treatment could reverse inhibitor resistance. To investigate the effect of SGK3-PROTAC1 under these conditions, we treated CAMA-1 (Figure 5A,C) or ZR-75-1 (Figure 5B,D) for 5 days with either a class 1A PI3K inhibitor (GDC0941 1 μM;[38]Figure 5A,B) or an Akt inhibitor (AZD5363, 1 μM;[39]Figure 5C,D). These cells were treated with SGK3-PROTAC1 or cisSGK3-PROTAC1 (0.3 μM) for either 5 days in combination with the inhibitors or 8 h before lysis.
Figure 5 SGK3-PROTAC1-mediated degradation of SGK3 inhibits Akt-independent activation of mTORC1 in cancer cell lines treated with Akt or PI3K inhibitors. CAMA-1 (A, C) or ZR-75-1 (B, D) were treated for 5 days with 1 μM GDC0941 (A, B) or 1 μM AZD5363 (C, D). […]
All cell treatments were carried out as described in figure legends, to a final DMSO concentration of 0.1% (v/v). Lysates were quantified. […] Lysate concentration was quantified by Bradford Assay, and 10 μg of lysate was loaded in the LDS sample buffer for SDS-PAGE electrophoresis on Novex 4–12% Bis–Tris gels. […] The signal was produced with near-infrared secondary antibodies and detected using a Licor Biosciences Odyssey System, and the signal was quantified in Image Studio Lite.

T1 sequence (Q9HBY8 whole entry, canonical isoform): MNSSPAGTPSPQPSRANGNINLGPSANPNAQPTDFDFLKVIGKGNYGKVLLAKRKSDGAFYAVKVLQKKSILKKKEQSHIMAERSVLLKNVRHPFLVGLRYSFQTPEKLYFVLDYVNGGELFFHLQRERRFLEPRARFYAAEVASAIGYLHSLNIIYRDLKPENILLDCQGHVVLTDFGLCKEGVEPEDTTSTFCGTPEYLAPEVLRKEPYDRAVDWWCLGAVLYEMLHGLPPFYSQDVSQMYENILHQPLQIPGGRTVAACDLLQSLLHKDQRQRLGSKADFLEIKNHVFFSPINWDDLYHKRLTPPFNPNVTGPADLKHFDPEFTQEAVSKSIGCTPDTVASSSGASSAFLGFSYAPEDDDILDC

With `Cc1ccc(F)c(S(=O)(=O)Nc2ccc(-c3nc(OC[C@H]4CN(CCOCCOCCOCC(=O)N[C@H](C(=O)N5C[C@H](O)C[C@H]5C(=O)NCc5ccc(-c6scnc6C)cc5)C(C)(C)C)CCO4)c4cn[nH]c4n3)cc2)c1` [DAT1], the SGK2 level entry on SGK2 (up to 10 μM) is listed as “not significantly impacted”.

For the compound `Cc1ccc(F)c(S(=O)(=O)Nc2ccc(-c3nc(OC[C@H]4CN(CCCCCCOCCOCCOCC(=O)N[C@H](C(=O)N5C[C@H](O)C[C@H]5C(=O)NCc5ccc(-c6scnc6C)cc5)C(C)(C)C)CCO4)c4cn[nH]c4n3)cc2)c1` [SGK3-PROTAC1], the SGK2 level result at SGK2 (0.1 μM) is “without effecting”. The “concentration inducing degradation of SGK3” value on SGK3 (ZR-75-1, 8 h) is greater than 0.1 µM. Moreover, the SGK3 expression result on SGK3 is recorded as “substantially reduced”. In addition, the “phosphorylation of S6K1 at Thr389” value in assay [1] is “suppressed”.

`Cc1ccc(F)c(S(=O)(=O)Nc2ccc(-c3nc(OC[C@H]4CN(CCCCCCOCCOCCOCC(=O)N[C@H](C(=O)N5C[C@@H](O)C[C@H]5C(=O)NCc5ccc(-c6scnc6C)cc5)C(C)(C)C)CCO4)c4cn[nH]c4n3)cc2)c1` [cisSGK3-PROTAC1]: the “degradation of SGK3” value on SGK3 (ZR-75-1, 8 h, 0.03–3 μM) is “no impact”. Besides, at SGK3, the SGK3 expression result was “no significant effect”. In assay [1], the “phosphorylation of S6K1 at Thr389” value is on record as “no significant effect”.
